According to ChEMBL document CHEMBL5729683, “Diazaindole derivative and use thereof as CHK1 inhibitor” (2023):

Experiments:
[1] = molecular target: Serine/threonine-protein kinase Chk2 (Homo sapiens, UniProt O96017); assay: Activity Test of Compounds in the CHK1 Coupled Reaction System: The compounds of the present disclosure used in the experiments were self-prepared, and their chemical names and structural formulas were shown in the preparation embodiments of each compound. […] The test was carried out on the KinaseProfiler™ protein kinase activity detection platform of Eurofins, and the experimental results were provided by the company. […] A mixture solution of Mg2′ and ATP (adenosine triphosphate) was added to initiate the reaction and the reaction solution was incubated at room temperature for 40 min. 0.5% […] was added to terminate the reaction. […] The value was read with scintillation counting method after drying.
Chain of Serine/threonine-protein kinase Chk2 (O96017 whole entry): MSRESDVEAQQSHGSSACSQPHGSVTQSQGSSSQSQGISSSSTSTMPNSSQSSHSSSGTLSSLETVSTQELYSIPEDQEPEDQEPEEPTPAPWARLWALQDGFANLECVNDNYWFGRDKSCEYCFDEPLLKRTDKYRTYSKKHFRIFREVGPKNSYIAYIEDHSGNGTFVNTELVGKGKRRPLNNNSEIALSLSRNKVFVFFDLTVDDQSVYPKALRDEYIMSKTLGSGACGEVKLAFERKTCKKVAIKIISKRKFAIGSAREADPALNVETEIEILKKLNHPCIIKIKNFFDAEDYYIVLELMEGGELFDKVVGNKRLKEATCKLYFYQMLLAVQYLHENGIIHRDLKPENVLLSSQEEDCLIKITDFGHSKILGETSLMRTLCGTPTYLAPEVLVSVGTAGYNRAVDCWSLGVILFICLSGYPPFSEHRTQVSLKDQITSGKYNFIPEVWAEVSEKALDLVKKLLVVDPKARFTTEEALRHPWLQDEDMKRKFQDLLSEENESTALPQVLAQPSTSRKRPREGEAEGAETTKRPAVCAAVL

[2] = molecular target: T1, Serine/threonine-protein kinase Chk1 (Homo sapiens, UniProt O14757); assay: Activity Test of Compounds in the CHK1 Coupled Reaction System: The compounds of the present disclosure used in the experiments were self-prepared, and their chemical names and structural formulas were shown in the preparation embodiments of each compound. The determination mixture containing embodiment compounds of the present disclosure and Chk1 and Chk2 kinases were incubated in a microtiter plate, and CHK1 inhibitor activity of compounds were tested by monitoring the phosphorylation of Chk1 and Chk2 kinases on a synthetic peptide substrate with a specific amino acid sequence ([…], SEQ ID NO: 1). The test was carried out on the KinaseProfiler™ protein kinase activity detection platform of Eurofins, and the experimental results were provided by the company. The procedure was as follows: Chk1 and Chk2 kinases were diluted with 20 mM MOPS (morpholinpropane sulfonic acid), 1 mM EDTA (ethylenediaminetetraacetic acid), 0.04% Brij-35, 5% glycerol, 0.1% 2-mercaptoethanol, 1 mg/mL BSA (bovine serum albumin) and added to the reaction system, and the reaction system contained the embodiment compounds, 8 mM MOPS pH 7.0, 0.2 mM EDTA, 200 sM polypeptide substrate ([…], SEQ ID NO: 1), 10 mM magnesium acetate and a certain concentration of [γ-33P]-ATP (the strength was about 500 cpm/pmol). A mixture solution of Mg2′ and ATP (adenosine triphosphate) was added to initiate the reaction and the reaction solution was incubated at room temperature for 40 min. 0.5% Phosphate buffer was added to terminate the reaction. 10 μL of the reaction solution was filtered four times on a continuous filter P30, washed three times with 0.425 phosphate buffer, and once with methanol, each wash for 4 min. The value was read with scintillation counting method after drying.
T1 sequence (O14757 whole entry): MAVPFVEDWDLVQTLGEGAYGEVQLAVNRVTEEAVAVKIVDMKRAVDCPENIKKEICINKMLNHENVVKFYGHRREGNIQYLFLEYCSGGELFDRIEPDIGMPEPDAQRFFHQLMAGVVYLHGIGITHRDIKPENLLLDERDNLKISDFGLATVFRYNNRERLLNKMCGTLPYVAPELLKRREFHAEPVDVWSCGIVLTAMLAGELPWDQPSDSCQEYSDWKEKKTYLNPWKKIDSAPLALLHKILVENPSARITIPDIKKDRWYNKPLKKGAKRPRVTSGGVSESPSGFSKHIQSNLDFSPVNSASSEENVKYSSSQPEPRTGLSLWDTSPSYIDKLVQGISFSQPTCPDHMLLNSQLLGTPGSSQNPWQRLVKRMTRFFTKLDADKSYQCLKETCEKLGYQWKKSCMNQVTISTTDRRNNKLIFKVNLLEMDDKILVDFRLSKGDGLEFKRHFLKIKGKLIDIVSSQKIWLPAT

COc1nc(C)ccc1-c1cc(Nc2cnc3ccn(C4CCN(C)CC4)c3n2)n[nH]1
IC50 [1]: 257 nM

COc1cccc(F)c1-c1cc(Nc2cnc3ccn(C4CCNCC4)c3n2)n[nH]1
IC50 [1]: 13 nM
IC50 [2]: in the range around 1 nM

COc1cccc(F)c1-c1cc(Nc2cnc3c(F)cn(C4CCNCC4)c3n2)n[nH]1
IC50 [1]: 2 nM
IC50 [2]: < 1 nM

COc1nc(C)ccc1-c1cc(Nc2cnc3c(F)cn(C4CCNCC4)c3n2)n[nH]1
IC50 [1]: 28 nM

COc1cccc(F)c1-c1[nH]nc(Nc2cnc3ccn(C4CCNCC4)c3n2)c1F
IC50 [1]: 24 nM
IC50 [2]: in the range around 2 nM

COc1nc(C)ccc1-c1cc(Nc2cnc3ccn(CC4CCNCC4)c3n2)n[nH]1
IC50 [1]: 1970 nM
IC50 [2]: 5 nM

COc1nc(C)ccc1-c1cc(Nc2cnc3ccn(C4CCNCC4)c3n2)n[nH]1
IC50 [1]: 79 nM

COc1nc(C)ccc1-c1cc(Nc2cnc3c(F)cn(C4CCN(C)CC4)c3n2)n[nH]1
IC50 [1]: 166 nM
